Assays:
hERG (KCNH2) = hERG (KCNH2) (Homo sapiens, UniProt Q12809); test: in vitro; conditions: CHO cells expressing human ERG
Description: Inhibition of human ERG expressed in CHO cells at 5 uM maintained at -80 mV membrane potential by automated patch-clamp assay relative to control

in vitro [1] = conditions: dog, MDCK
Description: Apparent permeability in MDCK cells

in vitro [2] = conditions: human, pooled liver microsomes
Description: Metabolic stability in human pooled liver microsomes assessed as parent compound remaining at 0.1 uM measured after 30 mins in presence of NADPH by LC-MS/MS analysis

in vitro [3] = conditions: Sprague-Dawley, rat, liver microsomes
Description: Metabolic stability in Sprague-Dawley rat liver microsomes assessed as parent compound remaining at 0.1 uM measured after 30 mins in presence of NADPH by LC-MS/MS analysis

[4] = human, microsomes, 1 h, 50 µM
Description: Drug metabolism in human liver microsomes assessed as total covalent bond binding assessed per mg protein at 50 umol/L incubated for 1 hr in presence of NADPH by liquid scintillation counter analysis

[5] = human, microsomes, 1 h, 10 µM
Description: Drug metabolism in human liver microsomes assessed as NADPH-dependent covalent bond binding assessed per mg protein at 10 umol/L incubated for 1 hr in presence of NADPH by liquid scintillation counter analysis

[6] = human, microsomes, 1 h, 50 µM; remark: listed apart in the source
Description: Drug metabolism in human liver microsomes assessed as NADPH-dependent covalent bond binding at 50 umol/L incubated for 1 hr in presence of NADPH by liquid scintillation counter analysis

[7] = human, microsomes, 1 h, 50 µM; remark: listed apart in the source
Description: Drug metabolism in human liver microsomes assessed as NADPH-independent covalent bond binding assessed per mg protein at 50 umol/L incubated for 1 hr in presence of NADPH by liquid scintillation counter analysis

[8] = human, microsomes, 1 h, 10 µM; remark: listed apart in the source
Description: Drug metabolism in human liver microsomes assessed as total covalent bond binding assessed per mg protein at 10 umol/L incubated for 1 hr in presence of NADPH by liquid scintillation counter analysis

[9] = human, microsomes, 1 h, 10 µM; remark: listed apart in the source
Description: Drug metabolism in human liver microsomes assessed as NADPH-independent covalent bond binding assessed per mg protein at 10 umol/L incubated for 1 hr in presence of NADPH by liquid scintillation counter analysis

Cytochrome P450 2D6 = Cytochrome P450 2D6 (Homo sapiens, UniProt P10635)
Description: Inhibition of CYP2D6 in human liver microsomes using dextromethorphan as substrate incubated for 15 mins in presence of NADPH by LC/MS/MS analysis

Beta-secretase 1 [10] = target: T1, Beta-secretase 1 (Homo sapiens, UniProt P56817)
Beta-secretase 1 [11] = target: T1, Beta-secretase 1; remark: listed apart in the source
Description: Inhibition of BACE1 in human SH-SY5Y cells expressing wild type betaAPP assessed as reduction in amyloidbeta (1 to 40 residues) level incubated for 24 hrs by HTRF assay

MDR1 (ABCB1, P-gp) = MDR1 (ABCB1, P-gp) (Homo sapiens, UniProt P08183); test: in vitro; conditions: MDCK-MDR1
Chain of MDR1 (ABCB1, P-gp) (P08183 whole entry): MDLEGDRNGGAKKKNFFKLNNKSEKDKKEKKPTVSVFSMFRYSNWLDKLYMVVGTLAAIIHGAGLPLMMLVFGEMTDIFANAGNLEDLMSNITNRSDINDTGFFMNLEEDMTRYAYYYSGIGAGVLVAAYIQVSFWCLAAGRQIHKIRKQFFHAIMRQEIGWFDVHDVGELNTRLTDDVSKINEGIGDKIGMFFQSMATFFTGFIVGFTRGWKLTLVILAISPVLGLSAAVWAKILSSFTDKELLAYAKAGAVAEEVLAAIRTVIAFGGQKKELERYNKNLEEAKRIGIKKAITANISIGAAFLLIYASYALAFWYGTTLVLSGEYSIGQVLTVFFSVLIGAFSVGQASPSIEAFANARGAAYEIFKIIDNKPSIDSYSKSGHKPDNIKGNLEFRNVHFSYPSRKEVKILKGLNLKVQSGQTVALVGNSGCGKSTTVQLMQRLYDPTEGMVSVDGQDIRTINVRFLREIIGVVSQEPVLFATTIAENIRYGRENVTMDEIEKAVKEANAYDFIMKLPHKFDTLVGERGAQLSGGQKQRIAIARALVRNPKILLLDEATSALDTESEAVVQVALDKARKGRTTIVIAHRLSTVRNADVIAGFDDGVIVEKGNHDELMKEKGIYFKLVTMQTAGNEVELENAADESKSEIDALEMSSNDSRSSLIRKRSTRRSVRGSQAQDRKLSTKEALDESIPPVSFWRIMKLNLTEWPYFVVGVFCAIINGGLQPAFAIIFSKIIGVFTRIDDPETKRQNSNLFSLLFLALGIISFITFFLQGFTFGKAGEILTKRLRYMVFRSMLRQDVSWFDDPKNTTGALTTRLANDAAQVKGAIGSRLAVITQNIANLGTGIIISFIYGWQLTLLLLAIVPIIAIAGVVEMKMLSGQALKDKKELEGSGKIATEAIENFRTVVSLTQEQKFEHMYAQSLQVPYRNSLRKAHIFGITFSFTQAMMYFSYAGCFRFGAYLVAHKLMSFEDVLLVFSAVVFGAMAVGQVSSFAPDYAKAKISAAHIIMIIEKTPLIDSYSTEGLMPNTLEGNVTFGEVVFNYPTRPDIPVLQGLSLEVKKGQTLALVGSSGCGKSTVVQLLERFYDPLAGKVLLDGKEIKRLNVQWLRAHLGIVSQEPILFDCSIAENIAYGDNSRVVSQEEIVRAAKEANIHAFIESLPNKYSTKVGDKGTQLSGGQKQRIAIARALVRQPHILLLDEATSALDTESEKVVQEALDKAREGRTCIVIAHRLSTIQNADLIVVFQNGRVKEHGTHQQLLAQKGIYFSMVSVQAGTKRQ
Description: Substrate activity at human MDR1 expressed in MDCK cells assessed as efflux ratio

Chain of hERG (KCNH2) (Q12809 whole entry): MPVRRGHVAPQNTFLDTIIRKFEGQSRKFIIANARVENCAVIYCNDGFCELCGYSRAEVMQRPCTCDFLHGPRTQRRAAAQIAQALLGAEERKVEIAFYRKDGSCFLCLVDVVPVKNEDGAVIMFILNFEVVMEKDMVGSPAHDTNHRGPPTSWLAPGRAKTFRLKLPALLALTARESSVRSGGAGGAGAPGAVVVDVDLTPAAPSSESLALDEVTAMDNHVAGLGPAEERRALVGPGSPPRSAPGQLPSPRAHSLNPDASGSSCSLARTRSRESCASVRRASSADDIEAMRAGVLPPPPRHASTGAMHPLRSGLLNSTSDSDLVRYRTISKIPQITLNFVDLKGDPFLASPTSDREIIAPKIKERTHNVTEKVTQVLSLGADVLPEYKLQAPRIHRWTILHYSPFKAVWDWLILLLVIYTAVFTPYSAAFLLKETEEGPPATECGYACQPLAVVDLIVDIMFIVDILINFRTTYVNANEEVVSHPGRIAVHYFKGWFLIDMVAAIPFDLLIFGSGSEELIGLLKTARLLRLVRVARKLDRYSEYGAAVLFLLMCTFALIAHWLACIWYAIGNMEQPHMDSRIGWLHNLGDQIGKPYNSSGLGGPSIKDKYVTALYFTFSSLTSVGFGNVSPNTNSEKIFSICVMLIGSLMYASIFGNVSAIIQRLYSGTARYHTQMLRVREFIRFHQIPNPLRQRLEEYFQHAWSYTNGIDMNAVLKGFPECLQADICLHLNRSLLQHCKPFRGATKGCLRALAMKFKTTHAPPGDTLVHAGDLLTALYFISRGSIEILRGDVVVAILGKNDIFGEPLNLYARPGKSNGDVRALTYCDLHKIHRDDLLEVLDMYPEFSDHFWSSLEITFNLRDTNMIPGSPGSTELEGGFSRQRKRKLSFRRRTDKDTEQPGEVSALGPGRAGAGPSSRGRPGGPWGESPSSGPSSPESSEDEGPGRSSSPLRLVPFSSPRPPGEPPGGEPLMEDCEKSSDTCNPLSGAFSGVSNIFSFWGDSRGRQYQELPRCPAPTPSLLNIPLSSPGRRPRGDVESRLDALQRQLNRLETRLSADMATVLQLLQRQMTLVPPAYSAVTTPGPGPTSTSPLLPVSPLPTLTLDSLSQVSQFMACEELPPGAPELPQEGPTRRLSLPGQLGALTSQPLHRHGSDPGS
T1 sequence (P56817 whole entry): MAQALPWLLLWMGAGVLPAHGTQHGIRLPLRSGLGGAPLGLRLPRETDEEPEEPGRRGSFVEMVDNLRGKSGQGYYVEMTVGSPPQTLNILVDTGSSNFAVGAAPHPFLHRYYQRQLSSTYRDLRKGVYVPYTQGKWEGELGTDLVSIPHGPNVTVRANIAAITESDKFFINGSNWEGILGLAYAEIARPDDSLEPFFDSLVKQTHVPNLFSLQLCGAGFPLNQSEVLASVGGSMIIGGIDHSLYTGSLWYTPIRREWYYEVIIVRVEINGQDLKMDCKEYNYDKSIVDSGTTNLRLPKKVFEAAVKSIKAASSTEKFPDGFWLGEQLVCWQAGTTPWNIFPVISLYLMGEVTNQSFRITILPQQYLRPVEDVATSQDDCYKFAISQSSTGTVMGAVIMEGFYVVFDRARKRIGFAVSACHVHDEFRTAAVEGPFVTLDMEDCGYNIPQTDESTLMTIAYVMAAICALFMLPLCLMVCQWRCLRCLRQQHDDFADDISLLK
Chain of Cytochrome P450 2D6 (P10635 whole entry): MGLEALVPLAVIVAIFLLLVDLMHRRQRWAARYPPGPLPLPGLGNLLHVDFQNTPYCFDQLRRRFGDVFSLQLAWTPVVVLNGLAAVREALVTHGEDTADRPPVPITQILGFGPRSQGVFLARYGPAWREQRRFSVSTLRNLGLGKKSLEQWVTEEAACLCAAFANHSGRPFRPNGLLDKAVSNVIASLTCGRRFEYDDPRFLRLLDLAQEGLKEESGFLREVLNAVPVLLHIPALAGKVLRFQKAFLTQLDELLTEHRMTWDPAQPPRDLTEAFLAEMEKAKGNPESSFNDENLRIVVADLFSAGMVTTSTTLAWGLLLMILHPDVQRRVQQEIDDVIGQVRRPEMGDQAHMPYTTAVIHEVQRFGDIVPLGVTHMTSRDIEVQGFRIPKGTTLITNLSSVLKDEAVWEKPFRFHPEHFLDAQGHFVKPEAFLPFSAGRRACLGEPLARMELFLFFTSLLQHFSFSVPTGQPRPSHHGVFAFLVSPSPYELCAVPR
Description for physchem: Dissociation constant, pKa of the compound by capillary electrophoresis method

| SMILES | Papp (in vitro [1]) [×10⁻⁶ cm/s] | remaining at 0.5 h, 0.1 µM (in vitro [2]) [%] | remaining at 0.5 h, 0.1 µM (in vitro [3]) [%] | pKa (physchem) | Drug metabolism [4] [pmol] | Drug metabolism [5] [pmol] | Drug metabolism [6] [pmol] | Drug metabolism [7] [pmol] | Drug metabolism [8] [pmol] | Drug metabolism [9] [pmol] | IC50 (Cytochrome P450 2D6) [nM] | IC50 (Beta-secretase 1 [10]) [nM] | IC50 (Beta-secretase 1 [11]) [nM] | efflux ratio (MDR1 (ABCB1, P-gp)) | inhibition at 5 µM (hERG (KCNH2)) [%] |
| --- | --- | --- | --- | --- | --- | --- | --- | --- | --- | --- | --- | --- | --- | --- | --- |
| C[C@@]1(c2cc(NC(=O)c3ccc(C#N)cn3)ccc2F)CCSC(N)=N1 | 12 | 104 | 66 | 9 |  |  |  |  |  |  |  |  |  |  | 91 |
| CCc1ccc(CCOc2ccc(CC3SC(=O)NC3=O)cc2)nc1 (stereo not drawn) [PIOGLITAZONE] |  |  |  |  | 3458 | 594 | 3446 | 12 | 599 | 4 |  |  |  |  |  |
| C[C@@]1(c2cc(NC(=O)c3ccc(F)cn3)ccc2F)C=CSC(N)=N1 |  | 97 | 60 |  |  |  |  |  |  |  | 11000 | 39 | 4.2 | 2 | 67 |
| CC1(c2cccc(C(=O)Nc3ccc(Cl)cn3)c2)CCSC(N)=N1 (stereo not drawn) |  |  |  |  |  |  |  |  |  |  |  | 1450 | 170 |  |  |

Continued, in another order:

| Papp (in vitro [1]) [×10⁻⁶ cm/s] | remaining at 0.5 h, 0.1 µM (in vitro [2]) [%] | remaining at 0.5 h, 0.1 µM (in vitro [3]) [%] | pKa (physchem) | Drug metabolism [4] [pmol] | Drug metabolism [5] [pmol] | Drug metabolism [6] [pmol] | Drug metabolism [7] [pmol] | Drug metabolism [8] [pmol] | Drug metabolism [9] [pmol] | IC50 (Cytochrome P450 2D6) [nM] | IC50 (Beta-secretase 1 [10]) [nM] | IC50 (Beta-secretase 1 [11]) [nM] | efflux ratio (MDR1 (ABCB1, P-gp)) | SMILES | inhibition at 5 µM (hERG (KCNH2)) [%] |
| --- | --- | --- | --- | --- | --- | --- | --- | --- | --- | --- | --- | --- | --- | --- | --- |
|  | 78 | 76 |  |  |  |  |  |  |  | < 1000 | 9.6 | 5.5 |  | C[C@@]1(c2cc(NC(=O)c3ccc(Cl)cn3)ccc2F)C=CSC(N)=N1 | 80 |
| 22 | 86 | 64 | 7.6 |  |  |  |  |  |  |  | 16 | 0.62 | 22 | N#Cc1ccc(C(=O)Nc2ccc(F)c([C@]3(CF)CCSC(N)=N3)c2)nc1 | 90 |
|  | 27 | 88 |  |  |  |  |  |  |  | < 1000 | 21 | 4.4 | 1.4 | COc1cnc(C(=O)Nc2ccc(F)c([C@]3(C)C=CSC(N)=N3)c2)cn1 | 29 |
| 38 | 65 | 8 | 7.8 |  |  |  |  |  |  |  | 9.1 | 1.1 | 5.3 | C=C1C[C@@](C)(c2cc(NC(=O)c3ccc(C#N)cn3)ccc2F)N=C(N)S1 | 78 |
|  | 85 | 87 |  |  |  |  |  |  |  | > 20000 | 20 | 1.6 | 20 | C[C@@]1(c2cc(NC(=O)c3ncc(C#N)cc3Cl)ccc2F)C=CSC(N)=N1 | 48 |
|  |  |  |  |  |  |  |  |  |  |  | 6.7 | 0.84 |  | C[C@@]1(c2cc(C(=O)Nc3ccc(Cl)cn3)ccc2F)CCSC(N)=N1 |  |

Reference: ChEMBL document CHEMBL4811232 (J Med Chem, 2021)
